# Source: patent US20040220268A1, “Compound that directly stimulates phospholipase C activity” (priority 2003, published 2004)
# Columns and labels:
# human neutrophils = assay: [Ca2+]i measurement with fura-2 in neutrophils; assay type: cell-based; settings: for effect on calcium signal induced by m-3M3FBS: pretreatment with 4 μM, m-3M3FBS 25 μM
# Method: Fura-2-loaded neutrophils were stimulated with m-3M3FBS or o-3M3FBS at 25 μM in extracellular calcium containing 2 mM or extracellular free calcium conditions. The results shown are representative of three independent experiments (A). Prepared neutrophils were loaded with fura-2 and then stimulated with 25 μM of m-3M3FBS in the absence or in the presence of 4 μM of U-73122 or U-73343 (B). Changes in 340 nm/380 nm excitation ratio were monitored, and converted to [Ca^2+]i levels. Data are presented as means ±S. E. M. of three independent experiments.
# (§1) Freshly prepared human neutrophils were incubated in serum free RPMI 1640 medium with 3 μM of fura-2/AM at 37° C. for 30 min with continuous stirring. After washing with serum free RPMI 1640 medium, the cells were suspended in serum free RPMI containing 250 μM of sulfinpyrazone to prevent dye leakage. About 2×10^6 cells were suspended in Ca^2+ free Locke's solution (158.4 mM NaCl, 5.6 mM KCl, 1.2 mM MgCl2, 5 mM HEPES pH 7.3, 10 mM glucose, and 0.2 mM EGTA) for each measurement. Changes in the fluorescence ratio were measured at an emission wavelength of 500 nm for dual excitation wavelengths at 340 nm and 380 nm. The calibration of the fluorescence ratio versus [Ca^2+]i was performed as described by Grynkiewicz (Grynkiewicz et al., 1985).
# [1] = system: PTX-sensitive Gi-proteins; assay: PTX sensitivity of [Ca2+]i increase in neutrophils; assay type: cell-based, human; settings: fMLF 1 μM
# Method: (§2) Isolated neutrophils were preincubated with PTX (1 μg/ml) or vehicle for 90 min at 37° C. and stimulated with m-3M3FBS, FMLF, or ATP at concentrations of 25, 1, and 500 μM, respectively. Changes in the excitation ratios at 340 nm/380 nm were monitored. Data are presented as means ±S. E. M. of two independent experiments (A). cAMP levels were determined by a radio receptor assay. Prepared cells were treated with m-3M3FBS (25 μM) or histamine (100 μM) and then lysed with Tris-EDTA. After removing the supernatant, [ 3H] cAMP and protein were added, and the amount of [^3H] cAMP-protein complex was determined. The amount of unlabeled cAMP (in the sample) was then calculated by measuring the protein-bound radioactivity. Data are presented as means ±S. E. M. of two independent experiments (B). RGS2-GFP inducible HeLa cells were cultured for 48 h in the absence or in the presence of tetracycline, and the induction of RGS2-GFP was confirmed by Western blot analysis using anti-GFP antibody (C). RGS2-GFP inducible HeLa cells were cultured for 48 h in the absence or in the presence of tetracycline and loaded with fura-2. Cells were treated with histamine (100 μM) or m-3M3FBS (25 μM), and changes in the 340 nm/380 nm ratios were monitored and converted to [Ca^2+]i values. The results shown are representative of three independent experiments (C).
# as §1
# Gs-proteins = assay: Cyclic AMP generation (radio receptor assay); assay type: cell-based; settings: human neutrophils; m-3M3FBS 25 μM, histamine 100 μM
# Method: as §2, with “RGS2-GFP inducible HeLa cells were cultured for 48 h in the absence or in the presence of tetracycline, and the induction of RGS2-GFP was confirmed by Western blot analysis using anti-GFP antibody (C).” left out
# Gq-proteins = assay: [Ca2+]i in RGS2-GFP inducible HeLa cells; assay type: cell-based, human; settings: histamine 100 μM, m-3M3FBS 25 μM
# Method: as §2, with “RGS2-GFP inducible HeLa cells were cultured for 48 h in the absence or in the presence of tetracycline, and the induction of RGS2-GFP was confirmed by Western blot analysis using anti-GFP antibody (C).” left out
# pRevTRE vector containing the cDNA of rat RGS2-GFP was transfected into Hela Tet-off cells using Lipofectamine. Selection was performed in DMEM supplemented with 2 μg/ml of tetracycline and 500 μg/ml of hygromycin B. Two weeks later, several well-isolated colonies were picked out and analyzed by western blotting to determine the expression level of RGS2 in the absence of tetracycline. For these experiments, HeLa cells were cultured for 48 h in the absence or in the presence of tetracycline.
# as §1
compound,measurement,setting,value
"COc1ccc2c(c1)CC[C@@H]1[C@@H]2CC[C@]2(C)[C@@H](NCCCCCCN3C(=O)C=CC3=O)CC[C@@H]12 [U-73122, reference compound]",effect on m-3M3FBS-induced calcium signal,"human neutrophils; preincubation in the presence of extracellular calcium, data not shown",completely blocked
same,effect on calcium signal induced by m-3M3FBS,human neutrophils,complete inhibition
"COc1ccc2c(c1)CC[C@@H]1[C@@H]2CC[C@]2(C)[C@@H](NCCCCCCN3C(=O)CCC3=O)CC[C@@H]12 [U-73343, reference compound]",effect on calcium signal induced by m-3M3FBS,human neutrophils,no effect
fMLF,effect of PTX preincubation on the induced calcium increase,"[1]; PTX 1 μg/ml for 90 min, m-3M3FBS 25 μM",inhibited
same,[Ca2+]i increase,"[1]; neutrophils, without PTX",induced [Ca^2+]i increase
"NCCc1c[nH]cn1 [histamine, reference compound]",intracellular cAMP level,Gs-proteins,potently induce cAMP production
same,[Ca2+]i increase,Gq-proteins; HeLa cells in the presence of tetracycline (RGS2 not induced),caused [Ca^2+]i increases
same,effect of RGS2 induction on the induced calcium response,Gq-proteins; HeLa cells overexpressing RGS2,completely blocked
